Literature values as cited in patent EP0540813B1, “Sustained release formulations of acetazolamide” (AMERICAN CYANAMID COMPANY, priority 1991, dated 1993).

Conditions: reported in the literature

## CC(=O)Nc1nnc(S(N)(=O)=O)s1 [acetazolamide, N-(5-sulphamoyl-1,3,4-thiadiazol-2-yl)acetamide]
  plasma levels considered toxic: above 30 µg/ml
  therapeutic plasma range: 5 to 10 µg/mL
